According to patent publication US20220062233A1 (The Board of Trustees of the Leland Stanford Junior …, priority 2018, published 2022):

Key:
[1] = In vivo pharmacokinetics and brain penetration, single dose, mouse; settings: for clearance / half-life / Vd / Cmax: C57BL6, blood; for clearance / half-life / Vd: intravenous, 0.5 mg/kg; for clearance / half-life / Vd / Cmax / Kp / Fabs (%): Mouse; for clearance / half-life / Vd / Cmax / Kp: single dose; for half-life: read-out: Elimination Half-life (converted); for Vd: read-out: Vdss; for Cmax: oral, 5 mg/kg, read-out: Cmax (maximum concentration in blood or plasma); for Kp: C57BL6, brain / blood, averaged over collection time points, read-out: BB_Ratios (brain-to-blood concentration ratio); for Fabs (%): single dose IV/PO
Protocol: (§1) B. In Vivo Pharmacokinetics and Brain Penetration
(§2) The pharmacokinetic assessment was carried out in rodents (e.g. Sprague-Dawley rats or C57BL6 mice) after a single dose administration by IV (e.g., 0.5 mg/kg) or PO (e.g., 5 mg/kg). Biological samples were collected at pre-determined time points, batch-processed, and the test articles were extracted and quantified with LC-MS, utilizing internal standards and separately prepared calibration curves. Blood (or plasma) concentration to time profiles were acquired for compounds and a selected list is presented in Table 6 with the non-compartmental PK parameters (e.g., peak concentration in circulation (Cmax), absolute bioavailability (Fabs), elimination half-life, clearance (CL), and volume of distribution at steady state (Vdss)). Upon terminal collection, the brains were also collected and homogenized in an extraction buffer, followed by quantification with LC-MS. After brain concentration levels (ng/g of brain tissue) were determined, the mean ratios of the brain-to-blood (BB) concentration (or brain-to-plasma concentration) at various collection time points were averaged, then shown in Table 6 as BB Ratio to indicate the extent of brain penetration.
FIG. 1A is a graph showing in vitro mouse hepatocyte stability on compound #2 (closed circle) and compound #42 (open circle). FIG. 1B is a graph showing blood concentration-time profile of mouse (N=3 per group) after IV administration of 0.5 mg/kg of compound #2 (closed circle) or #42 (open circle), or PO administration of 5 mg/kg of compound #2 (closed triangle) or #42 (open triangle).

[2] = test system: Huntington's disease patient iPSCs (ND50036); assay: iPSC viability at IC20; format: cell-based, human; settings: at the concentration of IC20
mutant HTT = assay: Mutant HTT assay in induced pluripotent stem cells (iPSC); format: cell-based, human; settings: HD patient iPSCs, one day incubation; class symbols; read-out: iPSC IC20 (nM) mHTT
Outline: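 Huntington's disease patient iPSCs (ND50036) plated at 7,000 cells/well, compound-treated after 48 h for one day in mTeSR1. Lysates normalised by BCA protein, then mutant HTT measured by sandwich ELISA: anti-human HTT capture, biotinylated mutant-HTT-specific detection, streptavidin-HRP/TMB colorimetric readout, interpolated from a standard curve.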

[3] = test system: Gmr::HTT97Q fly (mutant HTT, rough eye); assay: HD-Drosophila phenotypic assay (rough eye analysis); format: in vivo, Drosophila melanogaster; settings: Gmr-HTT97Q flies, compound 10 μM in media
Description: D. Alleviation of Neuron Degeneration Phenotypes of Mutant HTT in Drosophila HD Models
The Drosophila melanogaster (fruit fly) HD models carry the coding sequence of human HTT exon1 with 97 CAG repeats to mimic mutant HTT of Huntington's disease (HD). The Gmr::HTT97Q fly, expressing mutant HTT primarily in the neurons of Drosophila compound eyes, has a severe degeneration of photoreceptor neurons and the phenotypic trait ‘rough eye’. All of the fly stocks and genetics crosses are maintained at 25° C. on standard cornmeal yeast agar media.
b. Eye Morphology (Rough Eye) Analysis
Fifteen adult male flies (Gmr-HTT97Q/Gmr-HTT97Q or Gmr/Gmr) are crossed with 15 virgin female flies W1118(+/+) in a vial containing standard yeast agar media with the compound in a concentration of 10 μM. Parent-flies are removed from vials at day 7, followed by a collection of newly hatched flies for ‘rough eye’ analysis. The morphology of compound eyes is captured using a Leica DMR upright microscope equipped with a digital camera (CoolSNAP 5.0, Photometrics). To increase the depth of field, imaging software is used to create montage composite images (Helicon Focus, HeliconSoft). A total of 10 flies are collected for analysis in each individual condition, and the biological experiment is conducted three times. DMSO, the reagent solvent of the compound, is included as a control.

[4] = In vivo pharmacokinetics and brain penetration, single dose, rat
Protocol: as §1, §2

[5] = mouse, PO 5 mg/kg, compound #42 versus #2

Row | Structure (SMILES) | clearance [1] | half-life [1] | Vd [1] | Cmax [1] | Kp [1] | Fabs (%) [1] | iPSC viability at IC20 [2] | IC20 (mutant HTT) | elimination half-life (comparison) ([1]; mouse, IV 0.5 mg/kg, compound #42 versus #2, FIG. 1B) | Cmax (comparison) [1, 5] | Fabs (comparison) [1, 5] | CL (comparison) ([1]; mouse, randomized cross-over after 48-hour washout, compound #42 versus #2) | HD-Drosophila Phenotypic assay (rescue of rough eye phenotype) [3] | Kp ([4]; Sprague-Dawley, brain / blood, single dose, averaged over collection time points, read-out: BB_Ratios (brain-to-blood concentration ratio)) | clearance ([4]; Sprague-Dawley, in vivo, intravenous, single dose) | Vd ([4]; Sprague-Dawley, in vivo, intravenous, single dose, read-out: Vdss) | Cmax ([4]; Sprague-Dawley, in vivo, single dose, read-out: Cmax (maximum concentration in blood or plasma)) | half-life ([4]; Sprague-Dawley, in vivo, single dose, read-out: Elimination Half-life (converted)) | Fabs (%) ([4]; single dose IV/PO)
1 | OCCOCc1ccc(CN[C@@H]2CCCc3c2[nH]c2ccc(Br)cc32)cc1 (single isomer, unassigned) [Compound 28] | 16.7 mL/min/kg | 2.4 h | 3.3 L/kg | > 300 nM | ≥ 1 | >70% | + (cell viability is greater than 75% at the concentration of IC20) | < 100 nM |  |  |  |  |  |  |  |  |  |  | 
2 | CS(=N)(=O)c1ccc(CN[C@@H]2CCCc3c2[nH]c2ccc(Br)cc32)cc1 (stereo partly drawn) [Compound 49, (4-((((R)-6-bromo-2,3,4,9-tetrahydro-1H-carbazol-1-yl)amino)methyl)phenyl)(imino)(methyl)-λ^6-sulfanone] | 55 mL/min/kg | 1.1 h | 5.1 L/kg | > 300 nM | ≥ 1 | <30% | + (cell viability is greater than 75% at the concentration of IC20) | < 100 nM |  |  |  |  |  |  |  |  |  |  | 
3 | [2H]C([2H])(O)c1ccc(CN[C@@H]2CCCc3c2[nH]c2ccc(Br)cc32)cc1 [Compound 42, (R)-(4-(((6-bromo-2,3,4,9-tetrahydro-1H-carbazol-1-yl)amino)methyl)phenyl)methan-d2-ol] | 80 mL/min/kg | 1.2 h | 7.2 L/kg | 100 to 300 nM |  | <30% | + (cell viability is greater than 75% at the concentration of IC20) | < 100 nM | longer | significantly increased | significantly increased | slower CL |  |  |  |  |  |  | 
4 | OCc1ccc(CN[C@@H]2CCCc3c2[nH]c2ccc(Br)cc32)cc1 [Compound 2, (R)-(4-(((6-bromo-2,3,4,9-tetrahydro-1H-carbazol-1-yl)amino)methyl)phenyl)methanol] | 183 mL/min/kg | 0.8 h | 11 L/kg | < 100 nM |  | <30% | + (cell viability is greater than 75% at the concentration of IC20) | < 100 nM |  |  |  |  | & (rough eye phenotype of HD flies is rescued by testing compound greater than 40%) |  |  |  |  |  | 
5 | OCc1ccc(CNC2CCCc3c2[nH]c2ccc(Br)cc32)cc1 (centres unmarked) [Compound 1] |  |  |  |  |  |  |  |  |  |  |  |  | & (rough eye phenotype of HD flies is rescued by testing compound greater than 40%) | ≥ 1 | 85 mL/min/kg | 12 L/kg | 100 to 300 nM | 1.9 h | <30%
6 | CC(C)(O)c1ccc(CN[C@@H]2CCCc3c2[nH]c2ccc(Br)cc32)cc1 [Compound 31, (R)-2-(4-(((6-bromo-2,3,4,9-tetrahydro-1H-carbazol-1-yl)amino)methyl)phenyl)propan-2-ol] | 50 mL/min/kg | 2.6 h | 9.1 L/kg | 100 to 300 nM | ≥ 1 | 30-70% | + (cell viability is greater than 75% at the concentration of IC20) | < 100 nM |  |  |  |  |  |  |  |  |  |  | 
